Data published in patent US5834461A, “Tricyclic benzazepine vasopressin antagonists” (American Cyanamid Company, priority 1997, dated 1998).

Assays:
[1] = target: vasopressin V1 receptor (rat liver plasma membranes) (Rattus norvegicus, UniProt P30560); assay: Binding Assay to Rat Hepatic V1 Receptors; details: rat hepatic V1
Description: Rat liver plasma membranes expressing the vasopressin V1 receptor subtypes are isolated by sucrose density gradient according to the method described by Lesko et al., (1973). These membranes are quickly suspended in 50.0 mM Tris.HCl buffer, pH 7.4, containing 0.2% bovine serum albumin (BSA) and 0.1 mM phenylmethylsulfonylfluoride (PMSF) and kept frozen at -70° C. until used in subsequent binding experiments. For binding experiments, the following is added to the wells of a ninety-six well format microtiter plate: 100 μl of 100.0 mM Tris.HCl buffer containing 10.0 mM MgCl2, 0.2% heat inactivated BSA and a mixture of protease inhibitors: leupeptin, 1.0 mg %; aprotinin, 1.0 mg %; 1,10-phenanthroline,2.0 mg %; trypsin inhibitor, 10.0 mg % and 0.1 mM PMSF, 20.0 μl of [phenylalanyl-3,4,5,-^3 H] vasopressin (S.A. 45.1 Ci/mmole) at 0.8 nM, and the reaction initiated by the addition of 80 μl of tissue membranes containing 20 μg of tissue protein. The plates are kept undisturbed on the bench top at room temperature for 120 min. to reach equilibrium. Non-specific samples are assayed in the presence of 0.1 μM of the unlabeled antagonist phenylalanylvasopressin, added in 20.0 μl volume.
For test compounds, these are solubilized in 50% dimethylsulfoxide (DMSO) and added in 20.0 μl volume to a final incubation volume of 200 μl. Upon completion of binding, the content of each well is filtered off, using a Brandel® cell Harvester (Gaithersburg, Md.). The radioactivity trapped on the filter disk by the ligand-receptor complex is assessed by liquid scintillation counting in a Packard LS Counter, with an efficiency of 65% for tritium.

[2] = target: T1, rat kidney medullary V2 receptors (Rattus norvegicus, UniProt Q00788); assay: Binding Assay to Rat Kidney Medullary V2 Receptors; details: rat kidney medullary V2
T1 construct: Medullary tissues from rat kidneys are dissected out; from tissue; host or cells: rat kidney medulla membranes
T1 sequence (Q00788 whole entry): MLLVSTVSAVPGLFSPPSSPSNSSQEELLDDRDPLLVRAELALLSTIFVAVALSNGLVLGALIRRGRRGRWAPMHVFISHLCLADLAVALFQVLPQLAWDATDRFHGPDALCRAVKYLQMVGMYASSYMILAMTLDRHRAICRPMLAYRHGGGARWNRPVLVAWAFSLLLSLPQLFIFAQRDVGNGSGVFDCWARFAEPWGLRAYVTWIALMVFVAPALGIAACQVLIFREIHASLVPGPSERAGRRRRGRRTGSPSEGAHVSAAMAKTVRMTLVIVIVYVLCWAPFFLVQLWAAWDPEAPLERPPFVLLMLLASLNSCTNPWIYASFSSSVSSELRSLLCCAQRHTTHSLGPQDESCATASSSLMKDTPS
Description: Medullary tissues from rat kidneys are dissected out, cut into small pieces and soaked in a […] sodium chloride solution containing 1.0 mM EDTA with many changes of the liquid phase, until the solution is clear of blood. The tissue is homogenized in a 0.25M sucrose solution containing 1.0 mM EDTA and 0.1 mM PMSF using a Potter-Elvehjem homogenizer with a teflon pestle. The homogenate is filtered through several layers (4 layers) of cheese cloth. The filtrate is rehomogenized using a dounce homogenizer, with a tight fitting pestle. The final homogenate is centrifuged at 1500×g for 15 min. The nuclear pellet is discarded and the supernatant fluid recentrifuged at 40,000×g for 30 min. The resulting pellet formed contains a dark inner part with the exterior, slightly pink. The pink outer part is suspended in a small amount of 50.0 mM Tris.HCl buffer, pH 7.4. The protein content is determined by the Lowry's method (Lowry et al., J. Biol. Chem., 1953). The membrane suspension is stored at -70° C., in 50.0 mM Tris.HCl, containing 0.2% inactivated BSA and 0.1 mM PMSF in aliquots of 1.0 ml containing 10.0 mg protein per ml of suspension until use in subsequent binding experiments.
For binding experiments, the following is added in μl volume to wells of a 96 well format of a microtiter plate: 100.0 μl of 100.0 mM Tris.HCl buffer containing 0.2% heat inactivated BSA, 10.0 mM MgCl2 and a mixture of protease inhibitors: leupeptin, 1.0 mg %; aprotinin, 1.0 mg %; 1,10-phenanthroline, 2.0 mg %; trypsin inhibitor, 10.0 mg % and 0.1 mM PMSF, 20.0 μl of [^3 H] Arginine^8, vasopressin (S.A. 75.0 Ci/mmole) at 0.8 nM and the reaction initiated by the addition of 80.0 μl of tissue membranes (200.0 μg tissue protein). The plates are left undisturbed on the bench top for 120 min to reach equilibrium. Non-specific binding is assessed in the presence of 1.0 μM of unlabeled ligand, added in 20 μl volume. For test compounds, these are solubilized in 50% dimethylsulfoxide (DMSO) and added in 20.0 μl volume to a final incubation volume of 200 μl. Upon completion of binding, the content of each well is filtered off, using a Brandel® cell Harvester (Gaithersburg, Md.). The radioactivity trapped on the filter disk by the ligand-receptor complex is assessed by liquid scintillation counting in a Packard LS Counter, with an efficiency of 65% for tritium.

vasopressin V2 = assay: Vasopressin V2 Antagonist Activity in Conscious Hydrated Rats (diuretic effect); assay type: in vivo, normal Sprague-Dawley rats; details: AVP 0.4 μg/kg i.p.
Description: Conscious hydrated rats are treated with compounds under study from 0.1 to 100 mg/kg orally or vehicle. Two to four rats are used for each compound. One hour later, arginine vasopressin (AVP, antidiuretic hormore, ADH) dissolved in peanut oil is administered at 0.4 μg/kg intraperitoneally. Two rats in each test would not receive arginine vasopressin but only the vehicle (peanut oil) to serve as water-loading control. Twenty minutes later each rat is given 30 mL/kg of deionized water orally by gavage and is placed individually in a metabolic cage equipped with a funnel and a graduated glass cylinder to collect urine for four hours. Urine volume is measured and osmolality analyzed by use of a Fiske One-Ten osmometer (Fiske Assoc., Norwood, Mass., USA). Urinary sodium, potassium, and chloride are analyzed by use of ion-specific electrodes in a Beckman E3 (Electrolyte 3) Analyzer. In the following results, […] and decreased osmolality relative to AVP-control indicates activity.

vasopressin V1 = assay: Vasopressin V1 Antagonist Activity in Conscious Rats (vasopressin vasopressor response); assay type: in vivo, rat (spontaneously hypertensive rats); design: Average Change: unit not given here
Description: Conscious rats are restrained in a supine position with elastic tape. The area at the base of the tail is locally anesthetized by subcutaneous infiltration with 2% procaine (0.2 ml). Using aseptic technique the ventral caudal tail artery is isolated and a cannula made of PE 10 and 20 (heat-fused) tubing is passed into the lower abdominal aorta. The cannula is secured, heparinized (1000 i.u./cc), sealed and the wound closed with one or two stitches of Dexon 4-0. The caudal vein is also cannulated in the same manner for intravenous drug administration. The duration of the surgery is approximately 5 minutes. Additional local anesthesia (2% procaine or lidocaine) is provided as needed.
The animals are placed in plastic restraining cages in an upright position. The cannula is attached to a Statham P23Db pressure transducer and pulsatile blood pressure is recorded. […] The vasopressin injections are repeated 30, 60, 90, 120, 180, 240 and 300 min. later. Percentage of antagonism by the compound is calculated using the pre-drug vasopressin vasopressor response as 100%.

[3] = 10 mg/kg i.v., VAS 0.01 i.u./kg, 30 min
[4] = 10 mg/kg i.v., VAS 0.01 i.u./kg, 60 min
[5] = 10 mg/kg i.v., VAS 0.01 i.u./kg, 90 min
[6] = 10 mg/kg i.v., VAS 0.01 i.u./kg, 120 min
[7] = 10 mg/kg i.v., VAS 0.01 i.u./kg, 180 min
[8] = 10 mg/kg i.v., VAS 0.01 i.u./kg, 240 min
[9] = 10 mg/kg i.v., VAS 0.01 i.u./kg, 300 min
[10] = 10 mg/kg i.v., VAS 0.02 i.u./kg, 30 min
[11] = 10 mg/kg i.v., VAS 0.02 i.u./kg, 60 min
[12] = 10 mg/kg i.v., VAS 0.02 i.u./kg, 90 min
[13] = 10 mg/kg i.v., VAS 0.02 i.u./kg, 120 min
[14] = 10 mg/kg i.v., VAS 0.02 i.u./kg, 180 min
[15] = 10 mg/kg i.v., VAS 0.02 i.u./kg, 240 min
[16] = 10 mg/kg i.v., VAS 0.02 i.u./kg, 300 min
[17] = 30 mg/kg p.o., VAS 0.01 i.u./kg, 30 min
[18] = 30 mg/kg p.o., VAS 0.01 i.u./kg, 60 min
[19] = 30 mg/kg p.o., VAS 0.01 i.u./kg, 90 min
[20] = 30 mg/kg p.o., VAS 0.01 i.u./kg, 120 min
[21] = 30 mg/kg p.o., VAS 0.01 i.u./kg, 180 min
[22] = 30 mg/kg p.o., VAS 0.01 i.u./kg, 240 min
[23] = 30 mg/kg p.o., VAS 0.02 i.u./kg, 30 min
[24] = 30 mg/kg p.o., VAS 0.02 i.u./kg, 60 min
[25] = 30 mg/kg p.o., VAS 0.02 i.u./kg, 90 min
[26] = 30 mg/kg p.o., VAS 0.02 i.u./kg, 120 min
[27] = 30 mg/kg p.o., VAS 0.02 i.u./kg, 180 min
[28] = 30 mg/kg p.o., VAS 0.02 i.u./kg, 240 min

vasopressin V1 receptor (rat liver plasma membranes), sequence (P30560 whole entry): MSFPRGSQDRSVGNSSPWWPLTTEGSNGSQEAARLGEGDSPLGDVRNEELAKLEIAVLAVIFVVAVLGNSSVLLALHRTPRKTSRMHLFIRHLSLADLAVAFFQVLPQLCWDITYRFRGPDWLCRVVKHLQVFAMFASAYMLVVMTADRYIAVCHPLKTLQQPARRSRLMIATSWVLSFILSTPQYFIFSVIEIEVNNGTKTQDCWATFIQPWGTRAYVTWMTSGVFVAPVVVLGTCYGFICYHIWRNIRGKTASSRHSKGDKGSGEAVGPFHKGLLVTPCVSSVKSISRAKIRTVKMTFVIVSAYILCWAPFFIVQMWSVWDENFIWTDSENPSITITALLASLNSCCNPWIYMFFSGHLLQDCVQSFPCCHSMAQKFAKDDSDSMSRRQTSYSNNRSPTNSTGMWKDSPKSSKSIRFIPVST

`Cc1ccccc1C(=O)Nc1ccc(C(=O)N2CCc3ccccc3-c3ccccc32)cc1` [Example 92, N-[4-[(6,7-Dihydro-5H-dibenz[b,d]azepin-5-yl)-carbonyl]phenyl]-2-methylbenzamide] showed an IC50 [1] of 98 nM, an IC50 [2] of 25 nM and an Osmolality (vasopressin V2; 10 mg/kg orally) of 679 mOsm/kg. For the same compound, the “Urine Volume” value (vasopressin V2; 10 mg/kg orally) was 13.5 ml/4 hrs, the “Average Change” value (vasopressin V1; [3]) was 10.5 and the Inhibition (vasopressin V1; [3]) was 65%. For the same compound, the “Average Change” value (vasopressin V1; [4]) was 18, the Inhibition (vasopressin V1; [4]) was 40% and the “Average Change” value (vasopressin V1; [5]) was 17.5. For the same compound, the Inhibition (vasopressin V1; [5]) was 42%, the “Average Change” value (vasopressin V1; [6]) was 19 and the Inhibition (vasopressin V1; [6]) was 37%. For the same compound, the “Average Change” value (vasopressin V1; [7]) was 18, the Inhibition (vasopressin V1; [7]) was 40% and the “Average Change” value (vasopressin V1; [8]) was 19. For the same compound, the Inhibition (vasopressin V1; [8]) was 37%, the “Average Change” value (vasopressin V1; [9]) was 17.5 and the Inhibition (vasopressin V1; [9]) was 42%. For the same compound, the “Average Change” value (vasopressin V1; [10]) was 18.5, the Inhibition (vasopressin V1; [10]) was 60% and the “Average Change” value (vasopressin V1; [11]) was 22. For the same compound, the Inhibition (vasopressin V1; [11]) was 53%, the “Average Change” value (vasopressin V1; [12]) was 27 and the Inhibition (vasopressin V1; [12]) was 42%. For the same compound, the “Average Change” value (vasopressin V1; [13]) was 20.5, the Inhibition (vasopressin V1; [13]) was 56% and the “Average Change” value (vasopressin V1; [14]) was 29.5. For the same compound, the Inhibition (vasopressin V1; [14]) was 37%, the “Average Change” value (vasopressin V1; [15]) was 18 and the Inhibition (vasopressin V1; [15]) was 61%. For the same compound, the “Average Change” value (vasopressin V1; [16]) was 24 and the Inhibition (vasopressin V1; [16]) was 48%.

Compound `O=C(Nc1ccc(C(=O)N2Cc3ccccc3Cc3cc(Cl)ccc32)cc1)c1ccc(Cl)cc1Cl` [Example 137, N-[4-[(2-Chloro-6,11-dihydro-5H-dibenz[b,e]azepin-5-yl)carbonyl]phenyl]2,4-dichlorobenzamide] has an IC50 [1] of 76 nM, an IC50 [2] of 64 nM and an Osmolality (vasopressin V2; 30 mg/kg orally) of 358 mOsm/kg. The “Urine Volume” value (vasopressin V2; 30 mg/kg orally) was 15.8 ml/4 hrs, the “MAX % Inhibition” value (vasopressin V1; 10 mg/kg i.v.) was 52% and the “Time of max % inhibition” value (vasopressin V1; 10 mg/kg i.v.) was 30 min.

With `O=C(Cc1ccccc1Cl)Nc1ccc(C(=O)N2Cc3ccccc3Cc3ccccc32)cc1` [Example 16, 2-Chloro-N-[4-[(6,11-dihydro-5H-dibenz[b,e]azepin-5-yl)carbonyl]phenyl]benzeneacetamide] the IC50 [1] was 53 nM, the IC50 [2] was 65 nM and the Osmolality (vasopressin V2; 30 mg/kg orally) was 1257 mOsm/kg. For the same compound, the “Urine Volume” value (vasopressin V2; 30 mg/kg orally) was 7.2 ml/4 hrs, the “Average Change” value (vasopressin V1; [17]) was 25 and the Inhibition (vasopressin V1; [17]) was 15%. The “Average Change” value (vasopressin V1; [18]) was 30.5, the Inhibition (vasopressin V1; [18]) was -3% and the “Average Change” value (vasopressin V1; [19]) was 28.5. For the same compound, the Inhibition (vasopressin V1; [19]) was 3%, the “Average Change” value (vasopressin V1; [20]) was 23.5 and the Inhibition (vasopressin V1; [20]) was 20%. The “Average Change” value (vasopressin V1; [21]) was 30.5, the Inhibition (vasopressin V1; [21]) was -3% and the “Average Change” value (vasopressin V1; [22]) was 30. The Inhibition (vasopressin V1; [22]) was -2%, the “Average Change” value (vasopressin V1; [23]) was 27.5 and the Inhibition (vasopressin V1; [23]) was 17%. For the same compound, the “Average Change” value (vasopressin V1; [24]) was 29, the Inhibition (vasopressin V1; [24]) was 12% and the “Average Change” value (vasopressin V1; [25]) was 40.5. The Inhibition (vasopressin V1; [25]) was -23%, the “Average Change” value (vasopressin V1; [26]) was 29.5 and the Inhibition (vasopressin V1; [26]) was 11%. For the same compound, the “Average Change” value (vasopressin V1; [27]) was 26, the Inhibition (vasopressin V1; [27]) was 21% and the “Average Change” value (vasopressin V1; [28]) was 30. For the same compound, the Inhibition (vasopressin V1; [28]) was 9%.
